Source: ChEMBL document CHEMBL5543094, “Exploration of P1 and P4 modifications of nirmatrelvir: Design, synthesis, biological evaluation, and X-ray structural studies of SARS-CoV-2 Mpro inhibitors” (Eur J Med Chem, 2024)

What was measured:
Type in all cases: functional, organism-based
SARS-CoV-2 [1] = assay: Antiviral activity against SARS-CoV-2 Delta K1734 variant infected in African green monkey Vero E6 cells measured 3 days post infection by WST-8 assay; conditions: Severe acute respiratory syndrome coronavirus 2, Delta K1734, Vero C1008, 72 h
SARS-CoV-2 [2] = assay: Antiviral activity against SARS-CoV-2 Omicron 929 variant infected in African green monkey Vero E6 cells measured 7 days post infection by WST-8 assay; conditions: Severe acute respiratory syndrome coronavirus 2, Omicron 929, Vero C1008, 168 h
SARS-CoV-2 [3] = assay: Antiviral activity against SARS-CoV-2 Alpha QK002 variant infected in African green monkey Vero E6 cells measured 3 days post infection by WST-8 assay; conditions: Severe acute respiratory syndrome coronavirus 2, Alpha QK002, Vero C1008, 72 h
SARS-CoV-2 [4] = assay: Antiviral activity against SARS-CoV-2 Beta TY8 variant infected in African green monkey Vero E6 cells measured 3 days post infection by WST-8 assay; conditions: Severe acute respiratory syndrome coronavirus 2, Beta TY8, Vero C1008, 72 h
SARS-CoV-2 [5] = assay: Antiviral activity against SARS-CoV-2 Gamma TY7 variant infected in African green monkey Vero E6 cells measured 3 days post infection by WST-8 assay; conditions: Severe acute respiratory syndrome coronavirus 2, Gamma TY7, Vero C1008, 72 h
SARS-CoV-2 [6] = assay: Antiviral activity against SARS-CoV-2 Wuhan 5-2N variant infected in African green monkey Vero E6 cells measured 3 days post infection by WST-8 assay; conditions: Severe acute respiratory syndrome coronavirus 2, Wuhan 5-2N, Vero C1008, 72 h

SMILES | EC50 (SARS-CoV-2 [1]) [nM] | EC50 (SARS-CoV-2 [2]) [nM] | EC50 (SARS-CoV-2 [3]) [nM] | EC50 (SARS-CoV-2 [4]) [nM] | EC50 (SARS-CoV-2 [5]) [nM] | EC50 (SARS-CoV-2 [6]) [nM]
CCC(CC)COC(=O)[C@H](C)N[P@](=O)(OC[C@H]1O[C@@](C#N)(c2ccc3c(N)ncnn23)[C@H](O)[C@@H]1O)Oc1ccccc1 | 2900 | 4200 | 3500 | 2800 | 2600 | 3800
CC(C)(C)[C@H](NC(=O)C(F)(F)F)C(=O)N1C[C@H]2[C@@H]([C@H]1C(=O)N[C@H](C#N)C[C@@H]1CCNC1=O)C2(C)C | 2900 | 3100 | 2500 | 3700 | 4000 | 3000
CC(C)(C)[C@H](NC(=O)C(Cl)(Cl)Cl)C(=O)N1C[C@H]2[C@@H]([C@H]1C(=O)N[C@H](C#N)C[C@@H]1CCCNC1=O)C2(C)C | 600 | 4000 | 800 | 2400 | 2000 | 700
